{"source": "patent US9975944B2", "about": "“Synthetic peptides for the treatment of autoimmune diseases” (TEL HASHOMER MEDICAL RESEARCH INFRASTRUCTURE AND SERVICES …, priority 2013, dated 2018)", "key": {"[1]": {"tested_on": "pathogenic Th17 cells", "assay": "Pathogenic Th17 cell proportion in PBMC of RA patients, FACS", "format": "cell-based, human", "conditions": "48 hours, PMA, ionomycin and brefeldin A in last 4 hours, compared with non-citrullinated matched peptide", "procedure": "To assess ability of the citrullinated peptides to affect the pathogenic Th17 cells population proportion, peripheral blood mononuclear cells of rheumatoid arthritis patients were cultured in the presence of citrullinated peptides, non-citrullinated peptides and Infliximab for 48 hours. In the last 4 hours phorbol12-myristate 13-acetate (PMA), ionomycin and brefeldin A were added to the culture. Thereafter cells were stained with antibodies against CD3 and IL-17. As shown in FIGS. 7A-7H, significant down-regulation in the mean percentage of pathogenic Th17 cells was detected following incubation with the citrullinated peptides: decrease of 21% (Fil-Cit; E), 5% (β-Fib-Cit; F), and 26% (Cit-ME; G) as compared with the non-citrullinated matched peptides (FIG. 7A-7C, respectively). Mean percentage of pathogenic Th17 cells in the presence of Infliximab was decreased by 48% (FIG. 7H) as compared to medium (FIG. 7D)."}, "[2]": {"tested_on": "IFN-γ", "assay": "IFN-γ gene expression in mononuclear cells derived from synovial fluid of RA patients, real-time PCR", "format": "cell-based, human", "conditions": "24 h, compared to the non-citrullinated peptides", "procedure": "(§1) To assess the effect of the Cit-ME peptide (SEQ ID NO: 1) on inflammatory related genes expression, peripheral blood mononuclear cells derived from synovial fluid rheumatoid arthritis patients were incubated with the Cit-ME multi-epitope citrullinated peptide for 24 h. The effect of the peptide on gene expression was compared also to the effect of infliximab, a TNF-α blocker, which is an antirheumatic drug that acts as an anti-inflammatory compound. […] Results were determined by real-time PCR."}, "[3]": {"tested_on": "IL-17", "assay": "IL-17 mRNA expression in the spleen of AIA rats, RT-PCR", "format": "in vivo, rat", "conditions": "spleens of AIA rats, 8 rats per treatment, compared to control", "procedure": "To validate the effect of the peptides on CD4^+IL-17^+ populations as determined by FACS, the expression of IL-17 in the spleen was evaluated using RT-PCR. cDNA was extracted from the spleens of 8 rats per treatment (including control), and gene expression of IL-17 was assessed using the following RT-PCR primers: forward 5′-TGGCGGTTCTCCTTCAGTC-3′ (SEQ ID NO: 17) and reverse 5′-[…]-3′ (SEQ ID NO: 18). […] Thus, the RT-PCR data was in line with the FACS analyses."}, "[4]": {"tested_on": "TNF-α", "assay": "TNF-α gene expression in mononuclear cells derived from synovial fluid of RA patients, real-time PCR", "format": "cell-based, human", "conditions": "24 h, compared to the non-citrullinated peptides", "procedure": "as §1"}, "[5]": {"tested_on": "AIA rats", "assay": "Adjuvant-Induced Arthritis (AIA) in rats, paw swelling and clinical signs", "format": "in vivo, rat"}, "[6]": {"tested_on": "FAS receptor", "assay": "FAS mRNA expression in splenocytes of AIA rats, RT-PCR", "format": "in vivo, rat", "conditions": "compared to Non-Cit-ME and control groups", "procedure": "To examine whether Cit-ME affects apoptosis through the FAS receptor pathway, FAS mRNA expression in splenocytes was evaluated (FIG. 14F), using the following RT-PCR primers: forward 5′-TGGCTGTCCTGCCTCTGGT-3′ (SEQ ID NO: 19) and reverse 5′-[…]-3′ (SEQ ID NO: 20)."}, "[7]": {"tested_on": "anti cit-β-fibrinogen ACPA", "assay": "Peptide inhibition assay in ELISA, plates coated with cit-β-fibrinogen", "set-up": "species or system human", "conditions": "sera of ACPA-positive RA patients diluted to about 50% binding OD, 2 h preincubation at room temperature", "procedure": "Peptide inhibition assay in ELISA was used to confirm the cross-reactivity of the Cit-ME peptide to the following anti-citrullinated protein antibodies (ACPA): anti citrullinated filaggrin, anti cit-β-fibrinogen, anti cit-collagen and anti cit-vimentin. Sera were obtained from ACPA RA patients and samples with highly positive ACPA levels were selected (≥100 U/ml) using commercial CCP ELISA test (INOVA). ELISA test was performed with each of the citrullinated peptides: cit-filaggrin (HQCHQESTCitGRSRGRCGRSGS) set forth in SEQ ID NO: 3, cit-β-fibrinogen (CitPAPPPISGGGYCitACit) set forth in SEQ ID NO: 2, cit-collagen (ACitGLTGCitPGDAK) set forth in SEQ ID NO: 21 and cit-vimentin (SAVRACitSSVPGVRK) set forth in SEQ ID NO: 22. Sera were diluted in PBS to obtain a reactivity of approximately 50% binding OD under standard assay conditions. Increasing concentrations of Cit-ME peptide were added to the diluted sera and incubated for two hours at room temperature. Specimens were then assayed in ELISA plates coated with each one of the peptides. […] Thus, ACPA have binding specificity to Cit-ME."}}}
{"substance": "VCitLCitSSVESTCitGRSCitPAPPPACitGLT [Cit-ME]", "values": [{"measurement": "decrease in mean percentage of pathogenic Th17 cells", "setting": "[1]", "value": 26, "unit": "%"}, {"measurement": "expression of IFN-γ", "setting": "[2]", "value": "down-regulated"}, {"measurement": "mean relative expression level of IL-17 mRNA", "setting": "[3]", "value": "significant reduction"}, {"measurement": "expression of TNF-α", "setting": "[4]", "value": "down-regulated"}, {"measurement": "mean paw swelling / arthritis signs", "setting": "[5]; AIA Lewis female rats, 10 subcutaneous injections of 300 μg/rat on alternate days from day 7, up to day 21 post disease induction", "value": "significant reduced mean paw swelling"}, {"measurement": "maximum value of mean paw diameter", "setting": "[5]; AIA rats, 8 subcutaneous injections of 300 μg per rat on alternate days from day 7, mean±SE, untreated 4.61±0.17 on day 14", "value": "3.81±0.11", "unit": "mm"}, {"measurement": "arthritis severity / symptoms at day 27 after disease induction", "setting": "[5]; AIA rats, 10 subcutaneous injections of 300 μg/rat on alternate days, compared with β-Fib-Cit and untreated rats", "value": "reduced the arthritis severity"}, {"measurement": "mean relative expression level of FAS mRNA", "setting": "[6]", "value": "significantly higher"}, {"measurement": "amount of peptide sufficient to impair binding of specific ACPA to cit-β-fibrinogen", "setting": "[7]", "value": "10 to 200", "unit": "µg"}]}
